Laboratory results published in patent US20050238730A1, “Compositions comprising an ethanolamine derivative and organic metal salts” (priority 2001, published 2005).

System: human dermal fibroblasts
Assay: Fibroblasts proliferation after 10 days of culture (cells trypsinized and counted with a Coulter counter)
Type: cell-based
Conditions: 2% FCS
Procedure: Fibroblasts were seeded in 24 multiwell plates at 25,000 cells per well in 1 ml of DMEM supplemented with fetal calf serum (FCS) and antibiotics. Cultures were incubated 24 hours at 37° C. to allow cell attachment and spreading. Supernatants were then eliminated and replaced with fresh medium supplemented with 2% of FCS and containing the tested product at different concentrations. After 10 days of culture, cells were trypsinized and counted with a Coulter counter.

Row | Molecule | % effect vs control (metal salt alone 5 ng/ml) | % effect vs control (metal salt alone 50 ng/ml) | % effect vs control (metal salt alone 500 ng/ml) | % effect vs control (DMAE 10^-4 M alone) | % effect vs control (DMAE 10^-5 M alone) | Mean of cell/ml (metal salt alone 5 ng/ml) | Mean of cell/ml (metal salt alone 50 ng/ml) | Mean of cell/ml (metal salt alone 500 ng/ml)
1 | zinc gluconate [Zn gluconate] | 0% | 3% | 11% |  |  |  |  | 
2 | CN(C)CCO [DMAE, dimethylaminoethanol] |  |  |  | 31% | 14% |  |  | 
3 | N[C@@H](CC(=O)[O-])C(=O)[O-].[Mg+2] [Mg aspartate, magnesium aspartate] | 2% | 3% | 21% |  |  | 78073 ± 4231 cell/ml | 79400 ± 1674 cell/ml | 92753 ± 2771 cell/ml
